# System: WistarF/Han (WF) rats
# Assay: Elevated plus maze (EPM) test after i.c.v. treatment
# Type: in vivo
# Conditions: low dose (50pmol), Fig. 6
# Method: Animals. Male WistarF/Han (WF) rats (Central Animal Laboratory, Hannover Medical School, Hannover, Germany, see http://www.mh-hannover.de/institut/tierlabor/wf.htm for details), weighing 350-390g, were housed in a sound-proof, temperature controlled (24.0±0.5°C) room under specific pathogen free conditions with a 12/12h dark/light cycle (lights on at 07.00 with illumination level of 80 Lux). Food (Altromin lab chow pellets) and tap water were available ad libitum. Under ketamine/xylasine (100/5 mg/kg, i.p.) anesthesia, the rats were fixed in a Kopf stereotaxic frame and implanted with cannulae (Plastic One, Inc., Roanoke, VA, USA) above the lateral ventricle. All research and animal care procedures were approved by the Lower Saxony district government (Hannover, Germany) and followed principles described in the European Community's Council Directive of 24 November 1986 (86/609/EEC). […]
# Elevated plus maze (EPM) testing. […] The following parameters were calculated: Total numbers of arm entries (TA); entries to closed arms (CA); entries to open arms (OA); percentage frequency of entries to open arms (%OA: OAx100/TA); total trial duration (TT): 300s; duration of stay in closed arms (closed time; CLT); percentage share of CLT in total arms-stay duration (CLTx100/AT); duration of stay in open arms (open time; OT) and percentage share of OT in total arm-stay duration (%OT: OTx100/AT). […]
structure (smiles),measurement,value
CCC(C)C(N)C(=O)N1CCSC1 (stereo not shown) [isoleucyl thiazolidine],percentage of time spent on the open arms of the maze,increased
